# Measured values reported in patent US10336732B2, “1-heterocyclyl isochromanyl compounds and analogs for treating CNS disorders” (Sunovion Pharmaceuticals Inc., priority 2015, dated 2019).
# System: mice
# Assay: Neuropharmacological assay (SmartCube), behavioral signature of compound-treated mice
# Type: in vivo
# Details: i.p. 15 min before behavioral test, most efficacious dose(s) of 3 doses
# Summary of the method: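 Read-out is an automated video-based behavioral signature, scored as per-class probabilities (e.g., anxiolytic, antidepressant) against reference compounds. Dosing was i.p. at three doses, 15 min pre-test, in NMP, polyethylene glycol and propylene glycol. Values shown are from the most efficacious dose(s).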
Compound,AD: ADHD (probability that behavioral signature matches class),AG: analgesic (probability that behavioral signature matches class),AX: anxiolytic (probability that behavioral signature matches class),CE: cognitive enhancer (probability that behavioral signature matches class),DP: anti-depressant (probability that behavioral signature matches class),HA: hallucinogen (probability that behavioral signature matches class),MS: mood stabilizer (probability that behavioral signature matches class),PS: anti-psychotic (probability that behavioral signature matches class),SD: sedative hypnotic (probability that behavioral signature matches class),UN: uncharacterized CNS activity (probability that behavioral signature matches class)
"N#Cc1cccc2c1[C@@H]([C@@H]1CCCN1)OCC2 [Compound I-37, (S)-1-((S)-pyrrolidin-2-yl)isochroman-8-carbonitrile]",+ (LOQ ≤ + <5%),+ (LOQ ≤ + <5%),++ (5% ≤ ++ <25%),+ (LOQ ≤ + <5%),++ (5% ≤ ++ <25%),+ (LOQ ≤ + <5%),+ (LOQ ≤ + <5%),++ (5% ≤ ++ <25%),+ (LOQ ≤ + <5%),+++ (25% ≤ +++ <50%)
"c1ccc2c(c1)CCO[C@H]2C1CNC1 [Compound I-115, (S)-3-(isochroman-1-yl)azetidine]",+ (LOQ ≤ + <5%),++ (5% ≤ ++ <25%),++ (5% ≤ ++ <25%),++ (5% ≤ ++ <25%),++ (5% ≤ ++ <25%),+ (LOQ ≤ + <5%),+ (LOQ ≤ + <5%),++ (5% ≤ ++ <25%),++ (5% ≤ ++ <25%),+++ (25% ≤ +++ <50%)
"N#Cc1ccc2c(c1)[C@@H]([C@@H]1CCCN1)OCC2 [Compound I-39, (S)-1-((S)-pyrrolidin-2-yl)isochroman-7-carbonitrile]",+ (LOQ ≤ + <5%),++ (5% ≤ ++ <25%),++ (5% ≤ ++ <25%),++ (5% ≤ ++ <25%),+ (LOQ ≤ + <5%),+ (LOQ ≤ + <5%),+ (LOQ ≤ + <5%),+ (LOQ ≤ + <5%),+ (LOQ ≤ + <5%),++ (5% ≤ ++ <25%)
"c1ccc2c(c1)CCCO[C@H]2[C@H]1CCCN1 [Compound I-100, (R)-2-((R)-1,3,4,5-tetrahydrobenzo[c]oxepin-1-yl)pyrrolidine]",+ (LOQ ≤ + <5%),++ (5% ≤ ++ <25%),++ (5% ≤ ++ <25%),+++ (25% ≤ +++ <50%),++ (5% ≤ ++ <25%),+ (LOQ ≤ + <5%),++ (5% ≤ ++ <25%),+++ (25% ≤ +++ <50%),++ (5% ≤ ++ <25%),+ (LOQ ≤ + <5%)
"Clc1ccc2c(c1)CCO[C@@H]2[C@@H]1CCCN1 [Compound I-33, (S)-2-((S)-6-chloroisochroman-1-yl)pyrrolidine]",+ (LOQ ≤ + <5%),+ (LOQ ≤ + <5%),++ (5% ≤ ++ <25%),++ (5% ≤ ++ <25%),++ (5% ≤ ++ <25%),+ (LOQ ≤ + <5%),+ (LOQ ≤ + <5%),+++ (25% ≤ +++ <50%),++ (5% ≤ ++ <25%),+ (LOQ ≤ + <5%)
"Clc1ccc2c(c1)CCO[C@H]2[C@H]1CCCN1 [Compound I-35, (R)-2-((R)-6-chloroisochroman-1-yl)pyrrolidine]",+ (LOQ ≤ + <5%),+ (LOQ ≤ + <5%),++ (5% ≤ ++ <25%),++ (5% ≤ ++ <25%),++ (5% ≤ ++ <25%),+ (LOQ ≤ + <5%),+ (LOQ ≤ + <5%),+++ (25% ≤ +++ <50%),++ (5% ≤ ++ <25%),++ (5% ≤ ++ <25%)
"Fc1ccc2c(c1)CCO[C@@H]2[C@@H]1CCCN1 [Compound I-10, (S)-2-((S)-6-fluoroisochroman-1-yl)pyrrolidine]",+ (LOQ ≤ + <5%),++ (5% ≤ ++ <25%),++ (5% ≤ ++ <25%),++ (5% ≤ ++ <25%),++ (5% ≤ ++ <25%),+ (LOQ ≤ + <5%),+ (LOQ ≤ + <5%),++ (5% ≤ ++ <25%),+ (LOQ ≤ + <5%),+ (LOQ ≤ + <5%)
"c1ccc2c(c1)CCO[C@H]2[C@@H]1CCCCN1 [Compound I-72, (S)-2-((R)-isochroman-1-yl)piperidine]",+ (LOQ ≤ + <5%),++ (5% ≤ ++ <25%),++ (5% ≤ ++ <25%),+ (LOQ ≤ + <5%),+ (LOQ ≤ + <5%),+ (LOQ ≤ + <5%),+ (LOQ ≤ + <5%),+ (LOQ ≤ + <5%),+ (LOQ ≤ + <5%),+++ (25% ≤ +++ <50%)
"c1cc2c(c3c1CO[C@@H]3[C@@H]1CCCN1)OCO2 [Compound I-142, (S)-2-((S)-6,8-dihydro-[1,3]dioxolo[4,5-e]isobenzofuran-8-yl)-pyrrolidine]",+ (LOQ ≤ + <5%),++ (5% ≤ ++ <25%),+++ (25% ≤ +++ <50%),++ (5% ≤ ++ <25%),++ (5% ≤ ++ <25%),+ (LOQ ≤ + <5%),+ (LOQ ≤ + <5%),++ (5% ≤ ++ <25%),+ (LOQ ≤ + <5%),++ (5% ≤ ++ <25%)
"c1ccc2c(c1)CCO[C@@H]2C1CNC1 [Compound I-114, (R)-3-(isochroman-1-yl)azetidine]",+ (LOQ ≤ + <5%),++ (5% ≤ ++ <25%),++ (5% ≤ ++ <25%),++ (5% ≤ ++ <25%),+++ (25% ≤ +++ <50%),+ (LOQ ≤ + <5%),+ (LOQ ≤ + <5%),++ (5% ≤ ++ <25%),++ (5% ≤ ++ <25%),+ (LOQ ≤ + <5%)
"c1ccc2c(c1)CCO[C@H]2[C@H]1CCCN1 [Compound I-19, (R)-2-((R)-isochroman-1-yl)pyrrolidine]",+ (LOQ ≤ + <5%),+ (LOQ ≤ + <5%),++ (5% ≤ ++ <25%),++ (5% ≤ ++ <25%),+ (LOQ ≤ + <5%),+ (LOQ ≤ + <5%),+ (LOQ ≤ + <5%),++++ (50% ≤ ++++),+ (LOQ ≤ + <5%),++++ (50% ≤ ++++)

# Same assay, conditions: i.p. 15 min before behavioral test, most efficacious dose(s) of 3 doses
row,Compound,XG: anxiogenic (probability that behavioral signature matches class)
1,"N#Cc1cccc2c1[C@@H]([C@@H]1CCCN1)OCC2 [Compound I-37, (S)-1-((S)-pyrrolidin-2-yl)isochroman-8-carbonitrile]",+ (LOQ ≤ + <5%)
2,"c1ccc2c(c1)CCO[C@H]2C1CNC1 [Compound I-115, (S)-3-(isochroman-1-yl)azetidine]",+ (LOQ ≤ + <5%)
3,"N#Cc1ccc2c(c1)[C@@H]([C@@H]1CCCN1)OCC2 [Compound I-39, (S)-1-((S)-pyrrolidin-2-yl)isochroman-7-carbonitrile]",+ (LOQ ≤ + <5%)
4,"c1ccc2c(c1)CCCO[C@H]2[C@H]1CCCN1 [Compound I-100, (R)-2-((R)-1,3,4,5-tetrahydrobenzo[c]oxepin-1-yl)pyrrolidine]",+ (LOQ ≤ + <5%)
5,"Clc1ccc2c(c1)CCO[C@@H]2[C@@H]1CCCN1 [Compound I-33, (S)-2-((S)-6-chloroisochroman-1-yl)pyrrolidine]",+ (LOQ ≤ + <5%)
6,"Clc1ccc2c(c1)CCO[C@H]2[C@H]1CCCN1 [Compound I-35, (R)-2-((R)-6-chloroisochroman-1-yl)pyrrolidine]",+ (LOQ ≤ + <5%)
7,"Fc1ccc2c(c1)CCO[C@@H]2[C@@H]1CCCN1 [Compound I-10, (S)-2-((S)-6-fluoroisochroman-1-yl)pyrrolidine]",+ (LOQ ≤ + <5%)
8,"c1ccc2c(c1)CCO[C@H]2[C@@H]1CCCCN1 [Compound I-72, (S)-2-((R)-isochroman-1-yl)piperidine]",++ (5% ≤ ++ <25%)
9,"c1cc2c(c3c1CO[C@@H]3[C@@H]1CCCN1)OCO2 [Compound I-142, (S)-2-((S)-6,8-dihydro-[1,3]dioxolo[4,5-e]isobenzofuran-8-yl)-pyrrolidine]",+ (LOQ ≤ + <5%)
10,"c1ccc2c(c1)CCO[C@@H]2C1CNC1 [Compound I-114, (R)-3-(isochroman-1-yl)azetidine]",+ (LOQ ≤ + <5%)
11,"c1ccc2c(c1)CCO[C@H]2[C@H]1CCCN1 [Compound I-19, (R)-2-((R)-isochroman-1-yl)pyrrolidine]",+ (LOQ ≤ + <5%)
